Laboratory results from ChEMBL document CHEMBL3639166, “Heteroaryloxyheterocyclyl compounds as PDE10 inhibitors” (2013).

Biological target: T1, cAMP and cAMP-inhibited cGMP 3',5'-cyclic phosphodiesterase 10A (Rattus norvegicus, UniProt Q9QYJ6)
T1 sequence (Q9QYJ6 whole entry): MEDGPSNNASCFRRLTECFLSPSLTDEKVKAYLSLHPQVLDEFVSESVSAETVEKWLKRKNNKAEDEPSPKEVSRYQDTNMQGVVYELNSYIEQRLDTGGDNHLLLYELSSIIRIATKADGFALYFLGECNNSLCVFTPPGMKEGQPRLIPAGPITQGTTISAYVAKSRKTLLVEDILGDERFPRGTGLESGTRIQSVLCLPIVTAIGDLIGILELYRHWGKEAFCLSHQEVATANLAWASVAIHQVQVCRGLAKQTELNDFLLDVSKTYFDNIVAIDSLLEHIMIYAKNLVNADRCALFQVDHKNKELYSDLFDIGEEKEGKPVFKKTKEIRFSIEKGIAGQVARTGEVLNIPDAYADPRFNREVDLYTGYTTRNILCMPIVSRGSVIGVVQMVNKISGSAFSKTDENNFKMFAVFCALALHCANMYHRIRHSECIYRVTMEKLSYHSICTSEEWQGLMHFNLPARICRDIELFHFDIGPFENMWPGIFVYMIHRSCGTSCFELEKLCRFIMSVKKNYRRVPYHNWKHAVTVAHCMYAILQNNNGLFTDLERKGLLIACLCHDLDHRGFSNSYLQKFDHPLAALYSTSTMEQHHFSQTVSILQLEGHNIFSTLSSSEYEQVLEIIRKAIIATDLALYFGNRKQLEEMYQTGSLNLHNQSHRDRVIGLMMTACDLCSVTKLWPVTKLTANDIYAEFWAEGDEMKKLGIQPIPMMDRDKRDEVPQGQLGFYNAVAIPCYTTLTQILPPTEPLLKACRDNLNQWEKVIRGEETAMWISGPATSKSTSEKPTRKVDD
Experiment: Enzyme Inhibition Assay: Enzyme activity: An IMAP TR-FRET assay was used to analyze the enzyme activity (Molecular Devices Corp., Sunnyvale, Calif).

| SMILES | IC50 |
| --- | --- |
| Cc1ccc(-c2cnc(N3CCC(CO)CC3)nc2OC2CN(c3ccc4ccccc4n3)C2)cn1 | 0.2 nM |
| CC(=O)N1CCC(c2cccnc2OC2CCN(c3ncccc3Cl)CC2)CC1 | 3580 nM |
| CC(=O)N1CC=C(c2nccnc2OC2CN(C(=O)c3nc4ccccc4[nH]3)C2)CC1 | 10.4 nM |
| CN1CCN(c2nccnc2OC2CN(c3ccc4ccccc4n3)C2)CC1=O | 33.9 nM |
| OCc1ccc(N2CCC(Oc3ncccc3C3CCOCC3)CC2)nc1 | 1170 nM |
| Clc1cnccc1-c1nccnc1OC1CN(c2ccc3ccccc3n2)C1 | 155 nM |
| O=C1CCN(c2nccnc2OC2CN(c3ccc4ccccc4n3)C2)CC1 | 110 nM |
| OCC1CCN(c2nccnc2O[C@@H]2CCN(c3ccc4ccccc4n3)C2)CC1 | 167 nM |
| CC(=O)N1CCC(c2nccnc2OC2CN(c3ccc4ccccc4n3)C2)CC1 | 8.39 nM |
| c1ccc2nc(N3CC[C@@H](Oc4nccnc4C4CCOCC4)C3)ccc2c1 | 109 nM |
| CS(=O)(=O)N1CCC(c2nccnc2OC2CN(c3ccc4ccccc4n3)C2)CC1 | 208 nM |
| c1ccc(Cc2ccc3oc(-c4nccnc4OC4CN(c5ccc6ccccc6n5)C4)cc3c2)cc1 | 363 nM |
| Cc1ccc(-c2nccnc2OC2CN(c3ccc4ccccc4n3)C2)cc1 | 98.7 nM |
| CC(=O)N1CC2(C1)CN(c1nccnc1OC1CCN(c3ccc4ccccc4n3)CC1)C2 | 1270 nM |
| O=C(c1nccc2ccccc12)N1CCC(Oc2nccnc2C2CCOCC2)CC1 | 7320 nM |
| O=C(c1ccccn1)N1CCC(Oc2ncccc2C2CCOCC2)CC1 | 1260 nM |
| COc1ncccc1-c1cnc(N2CCC(CO)CC2)nc1OC1CN(c2ccc3ccccc3n2)C1 | 0.6 nM |
| Cc1cnc(OC2CN(c3ccc4ccccc4n3)C2)c(N2CCC(CO)CC2)c1 | 1.52 nM |
| Clc1ccc(N2CCC(Oc3ncccc3C3CCOCC3)CC2)nc1 | 1410 nM |

| SMILES | IC50 |
| --- | --- |
| N#Cc1ccc(-c2nccnc2OC2CN(c3ccc4ccccc4n3)C2)cc1 | 39.4 nM |
| OCC1CCN(c2ncc(Cl)c(OC3CN(c4ccc5ccccc5n4)C3)n2)CC1 | 10 nM |
| OCC1CCN(c2ncc(C3=CCOCC3)c(OC3CN(c4ccc5ccccc5n4)C3)n2)CC1 | 1.1 nM |
| CN1CCCN(c2nccnc2OC2CN(c3ccc4ccccc4n3)C2)CC1 | 2990 nM |
| c1cnc(O[C@@H]2CCN(c3nccc4ccccc34)C2)c(C2CCOCC2)c1 | 981 nM |
| CC(=O)N1CCC(c2nccnc2OC2CN(C(=O)c3ccc[nH]3)C2)CC1 | 139 nM |
| N#Cc1ccccc1-c1nccnc1OC1CN(c2ccc3ccccc3n2)C1 | 377 nM |
| OCC1CCN(c2nccc(OC3CN(c4ccc5ccccc5n4)C3)n2)CC1 | 14.2 nM |
| O=C(c1nc2ccccc2s1)N1CCC(Oc2ncccc2C2CCOCC2)CC1 | 324 nM |
| Cc1ccnc(N2CCC(Oc3nccnc3C3CCOCC3)CC2)c1 | 1330 nM |
| c1ccc(-c2nccc(OC3CN(c4ccc5ccccc5n4)C3)n2)nc1 | 109 nM |
| O[C@@H]1CCN(c2nccnc2OC2CCN(c3ccc4ccccc4n3)CC2)C1 | 356 nM |
| C1=C(c2nccnc2OC2CN(c3ccc4ccccc4n3)C2)CCOC1 | 14.9 nM |
| COC(=O)c1ccc(N2CCC(Oc3ncccc3C3CCOCC3)CC2)nc1 | 198 nM |
| c1ccc2nc(N3CC(Oc4nccnc4N4CCCC4)C3)ccc2c1 | 10000 nM |
| CNC(=O)c1ccc(-c2nccnc2OC2CN(c3ccc4ccccc4n3)C2)cc1 | 15 nM |
| OCC1CCN(c2cncc(OC3CN(c4ccc5ccccc5n4)C3)n2)CC1 | 0.639 nM |
| CC(=O)N1CC=C(c2nccnc2OC2CN(C(=O)c3ccc(C)cn3)C2)CC1 | 1030 nM |
| Cc1cc(-c2cccnc2OC2CCN(C(=O)c3nccc4ccccc34)CC2)ccn1 | 2130 nM |

| SMILES | IC50 |
| --- | --- |
| Cc1cc(-c2nccnc2O[C@@H]2CCN(c3ccc4ccccc4n3)C2)ccn1 | 255 nM |
| CC(=O)N1CCC(c2nc3ccccc3nc2OC2CN(c3ccc4ccccc4n3)C2)CC1 | 2.9 nM |
| c1ccc2nc(N3CC(Oc4nccnc4N4CCC(N5CCCC5)CC4)C3)ccc2c1 | 571 nM |
| CC(C)(C)OC(=O)N1CC(Oc2ncccc2[C@H]2CC[C@H](O)CC2)C1 | 15.8 nM |
| c1ccc2nc(N3CCC(Oc4nccnc4N4CCC4)CC3)ccc2c1 | 273 nM |
| O=C(c1nc2ccccc2[nH]1)N1CC[C@@H](Oc2ncccc2C2=CCOCC2)C1 | 767 nM |
| N#CC1CCN(c2nc3ccccc3nc2OC2CN(c3ccc4ccccc4n3)C2)CC1 | 19.2 nM |
| OCC1CCN(c2nccnc2O[C@H]2CCN(c3ccc4ccccc4n3)C2)CC1 | 78 nM |
| CC(=O)N1CCC(c2cccnc2OC2CCN(c3ccccn3)CC2)CC1 | 1080 nM |
| FC1(F)CCN(c2cccnc2OC2CN(c3ccc4ccccc4n3)C2)CC1 | 35.9 nM |
| COc1ncccc1-c1nc2ccccc2nc1OC1CN(c2ccc3ccccc3n2)C1 | 5.5 nM |
| O=C(c1cc2ccccc2cn1)N1CCC(Oc2ncccc2C2CCOCC2)CC1 | 126 nM |
| CC(=O)N1CCC(c2cnc(N3CCC(CO)CC3)nc2OC2CN(c3ccc4ccccc4n3)C2)CC1 | 0.39 nM |
| CC(O)C1CCN(c2nccnc2OC2CN(c3ccc4ccccc4n3)C2)CC1 (centres undefined) | 46.9 nM |
| Fc1ccc(N2CCC(Oc3ncccc3C3CCOCC3)CC2)nc1 | 2960 nM |
| c1ccc2nc(N3CCC(Oc4nccnc4-c4ccncc4)CC3)ccc2c1 | 35.7 nM |
| CC(=O)N1CCCC(c2cccnc2OC2CN(C(=O)c3cc4ccccc4[nH]3)C2)C1 (centres undefined) | 886 nM |
| c1ccc2[nH]c(N3CC[C@@H](Oc4nccnc4C4CCOCC4)C3)nc2c1 | 306 nM |
| OCC1CCN(c2ncc(Br)c(OC3CN(c4ccc5ccccc5n4)C3)n2)C1 (centres undefined) | 20.6 nM |

Continued by falling IC50, values first:

| IC50 | SMILES |
| --- | --- |
| 41800 nM | CC(=O)N1CCCC(c2cccnc2OC2CN(C(=O)CC(C)(C)C)C2)C1 (centres undefined) |
| 8890 nM | O=C(c1cc(Cl)ccn1)N1CCC(Oc2ncccc2C2CCOCC2)CC1 |
| 2470 nM | c1cnc(O[C@H]2CCN(c3nc4ccccc4[nH]3)C2)c(C2CCOCC2)c1 |
| 1830 nM | c1cnc(O[C@@H]2CCN(c3cc4ccccc4cn3)C2)c(C2CCOCC2)c1 |
| 1490 nM | CC(=O)N1CCC(c2cccnc2OC2CCN(c3ncccc3C)CC2)CC1 |
| 1360 nM | c1ccc2cc(N3CC[C@H](Oc4nccnc4C4CCOCC4)C3)ncc2c1 |
| 1220 nM | c1ccc(-c2nccnc2OC2CN(c3ccc4ccccc4n3)C2)nc1 |
| 1120 nM | COCC1CCN(c2nccnc2OC2CCN(c3ccc4ccccc4n3)CC2)CC1 |
| 1050 nM | CC(=O)N1CCC(c2nccnc2OC2CCN(c3cccc(C)n3)CC2)CC1 |
| 1000 nM | Cc1cccnc1C(=O)N1CCC(Oc2ncccc2C2CCOCC2)CC1 |
| 918 nM | Cc1cc(F)ccc1-c1nccnc1OC1CN(c2ccc3ccccc3n2)C1 |
| 821 nM | CC(=O)N1CCC(c2nccnc2OC2CCN(c3ccc(Cl)cn3)CC2)CC1 |
| 568 nM | Cc1cccnc1N1CCC(Oc2ncccc2C2CCOCC2)CC1 |
| 384 nM | c1cnc(O[C@@H]2CCN(c3ccc4ccccc4n3)C2)c(C2CCOCC2)c1 |
| 358 nM | CC1CCN(c2ncc(Br)c(OC3CN(c4ccc5ccccc5n4)C3)n2)CC1 |
| 345 nM | c1ccc2nc(N3CCC(Oc4nccnc4N4CC5(COC5)C4)CC3)ccc2c1 |
| 340 nM | c1cnc(O[C@H]2CCN(c3ccc4ccccc4n3)C2)c(C2CCOCC2)c1 |
| 314 nM | C1=CCN(c2nccnc2OC2CN(c3ccc4ccccc4n3)C2)CC1 |
| 298 nM | Cc1cnccc1-c1nccnc1OC1CN(c2ccc3ccccc3n2)C1 |

| IC50 | SMILES |
| --- | --- |
| 286 nM | c1ccc2nc(N3CCC(Oc4nccnc4N4CCCC4)CC3)ccc2c1 |
| 276 nM | Cc1ccc2nc(N3CCC(Oc4nccnc4C4CCOCC4)CC3)ccc2c1 |
| 199 nM | c1cnc(OC2CCN(c3nc4ccccc4[nH]3)CC2)c(C2CCOCC2)c1 |
| 198 nM | OC1CCN(c2nccnc2OC2CCN(c3ccc4ccccc4n3)CC2)CC1 |
| 158 nM | COC(=O)N1CCC(c2nccnc2OC2CN(c3ccc4ccccc4n3)C2)CC1 |
| 156 nM | Cc1cc(-c2nccnc2OC2CN(C(=O)c3nc4ccccc4[nH]3)C2)ccn1 |
| 95.3 nM | FC1(F)CCN(c2nccnc2OC2CN(c3ccc4ccccc4n3)C2)C1 |
| 87 nM | c1ccc2nc(N3CC(Oc4nccnc4-c4cccc5ncccc45)C3)ccc2c1 |
| 67 nM | OC1CCN(c2nccnc2OC2CN(c3ccc4ccccc4n3)C2)C1 (centres undefined) |
| 50.6 nM | N#Cc1ccc(-c2nccnc2OC2CN(c3ccc4ccccc4n3)C2)cn1 |
| 41.4 nM | CC(C)C(=O)N1CCCC(c2cccnc2OC2CN(C(=O)c3nc4ccccc4[nH]3)C2)C1 (centres undefined) |
| 40.6 nM | OCC1CCCN(c2nccnc2OC2CN(c3ccc4ccccc4n3)C2)C1 (centres undefined) |
| 26.1 nM | OC1CCN(c2nccnc2OC2CN(c3ccc4ccccc4n3)C2)CC1 |
| 19 nM | COc1cccc(-c2nccnc2OC2CN(c3ccc4ccccc4n3)C2)c1 |
| 11.2 nM | CC(=O)c1cccc(-c2nccnc2OC2CN(c3ccc4ccccc4n3)C2)c1 |
| 9.75 nM | OCC1CCN(c2nc3ccccc3nc2OC2CN(c3ccc4ccccc4n3)C2)CC1 |
| 0.3 nM | Cc1cc(-c2cnc(N3CCC(CO)CC3)nc2OC2CN(c3ccc4ccccc4n3)C2)ccn1 |
| 0.229 nM | OCC1CCN(c2ccc(Br)c(OC3CN(c4ccc5ccccc5n4)C3)n2)CC1 |
